Test results published in patent US9994536B2, “Compounds and methods of treating neurological disorders” (TORREY PINES INSTITUTE FOR MOLECULAR STUDIES, priority 2014, dated 2018).

Key:
[1] = target: T1, TrkA (Mus musculus, UniProt Q3UFB7); assay: Mouse brain lysate immunoblot, TrkA; format: in vivo; settings: 100 mg/kg i.p. for 5 days
T1 construct: from tissue; host or cells: mouse brain lysate
Protocol: FIGS. 9.2A and B illustrate that THPI-244 increases TrkA and sAPPα in the mouse brain. FIG. 9.2A illustrates that THPI-244 was administered to mice by i.p. injections at 100 mg/kg body weight for 5 days and the brain lysates were subjected to immunoblots. Specific antibodies were used to detect TrkA and sAPPα. […] Data are mean±SEM, n=3*, p<0.05, ***, p<0.001.

[2] = Brain levels of compound after i.p. injection (BBB passage), LC-MS; format: in vivo, mouse
Protocol: (3). Since blood brain barrier (BBB) is the main obstacle for drug development for any CNS disorders, we first wanted to verify whether compound THPI-244 enters the brain. We followed protocols exactly as published previously from our laboratory (Hayes, C D et al., 2013, BMC Med. 26, 11.81). […] We generated a standard graph (FIG. 1.4 (middle)) to be used in the quantitation of THPI-244 in the brain after intraperitoneal (i.p.) injections at 0.2 mg/kg body weight.

[3] = test system: sAPPα in supernatants of 7WD10 cells; assay: Western blot sAPPα release assay, 7WD10 cells; format: cell-based; settings: 10 nM, 7WD10 supernatant
Protocol: (2). To ascertain that hits identified as a result of AlphaLISA assay are not due to artifacts of the detection system, the sAPPα levels were measured by Western blots as a secondary assay downstream of primary HTS to confirm hits or discard artifacts of the AlphaLISA assay. The assay was performed using a range of concentrations of hit compounds (10-5,000 nM). A hit compound named thiazole piperazine #244 (THPI-244) and THPI-326 induced dose-dependent increase of sAPPα in supernatants of 7WD10 cells (FIG. 1.3). […] Since compound THPI-244 increased sAPPα levels more than THPI-326, we focused on THPI-244 for further validation.
Western blot sAPPα release assay. 7WD10 cells were grown in 6-well plates and treated with test compounds and SAHA (vorinostat) at several concentrations in duplicate wells. After 24 h of drug exposure, the conditioned media (CM) was collected, centrifuged to remove cell debris and subjected to SDS-PAGE electrophoresis. sAPPα (6E10, mouse IgG from IBL America ltd) was detected using indicated antibody. […] Samples were subjected to SDS-PAGE, transferred and immunoblotted with indicated antibodies and detected by enhanced chemiluminescence method. Quantification of Western blot signals was done using ImageJ software.

[4] = test system: human primary neurons; assay: MTT cytotoxicity assay, human primary neurons; format: cell-based; settings: 24 h exposure
Description: (§1) (4). Toxicity is another crucial limitation for successful drug development as evidenced by recent failure of γ-secretase inhibitors at the clinical trials due to cytotoxicity (Cole, S L and Vassar, R, 2007, Mol. Neurodeg. 2, 22-47; Doody R S, et al. 2013. N. Eng. J. Med. 369, 341-350). Therefore we measured cytotoxicity by very sensitive MTT assay as described previously (Hayes, C D., et al. 2013, BMC Medicine. 26, 11.81; 23; Hayes, C D., et al., 2012, PLoS One 7, e45841) in human primary neurons obtained from a commercial source (cat #1520, ScienCell, Carlsbad, Calif., USA) and fibroblasts derived directly from AD patients (cat #AG06263C, Coriell Institute Cell repository supported by NINDS, NIH). […] We directly used human neurons for toxicity studies so as to reduce the chances of future failure at a later stage due to toxicity.

[5] = test system: sAPPα; assay: sAPPα ELISA, fibroblasts derived from AD patients; format: cell-based, human; settings: 24 h
Protocol: (1). […] Therefore, we first used fibroblasts derived from AD patients (AG06263C, Coriell Cell repository, supported by NINDS/NIH) and exposed to THPI-244 for 24 h and measured sAPPα release by ELISA as done above for NT2 cells. […] We also confirmed dose-dependent effect of THPI-244 on sAPPα levels in human primary neurons transiently transfected with APP751 with Swedish mutation which is trafficked differently from WT APP and releases more sAPPα. Human neurons were grown on specially coated glass coverslips (cat #GG-18-PDL, NeuVitro, Germany). We could reproducibly achieve nearly 30% transfection efficiency using a nanoparticle based transfection reagent called Neuromag (cat #NM150299, OZ Biosciences, France).

[6] = test system: fibroblasts derived directly from AD patients; assay: MTT cytotoxicity assay, AD fibroblasts; format: cell-based; settings: 24 h exposure, human AD fibroblasts
Description: as §1

[7] = target: TrkA (Homo sapiens, UniProt P04629); assay: Table of THPI-244 analogs: TrkA increase
[8] = test system: Aβ42; assay: Aβ42 ELISA, NT2 stable cells; format: cell-based, human
Protocol: (5). To confirm the effect of THPI-244 on sAPPα levels in a neuronal cell line and by a tertiary assay, we exposed human Neuron-committed Teratocarcinoma cell line (NT2) stably expressing human APP751 to different concentrations of THPI-244 for 24 h and compared with that of Bryostatin, a classical activator of PKC known to stimulate sAPPα release. […] Levels of sAPPα were measured by ELISA using commercially available kit (cat #27734, IBL-America, Minneapolis, Minn., USA). […] Similar biphasic effect of Bryostatin was confirmed for Aβ42 also, measured again in NT2 stable cells by ELISA (cat #KHB3441, Life Technologies, Grand Island, N.Y., USA). Consistent with sAPPα, THPI-244 decreased Aβ42 levels dose-dependently starting from 50 nM (28%, p<0.05) to 2000 nM (64%, p<0.001) (n=4 independent experiments) (FIG. 1.7). Thus THPI-244 increased non-amyloidogenic processing of APP in NT2 cells.

[9] = test system: Wild-type (WT) C57BL/6 mice; assay: Lethal dose (LD50) study in mice; format: in vivo, mouse
Description: Wild-type (WT) C57BL/6 mice aged about 6 months were used in the study. The compound THPI-244 was initially dissolved in 100% DMSO and then diluted to final 10% DMSO with phosphate buffered saline (PBS). […] Among these 6 mice, 3 mice received repeated injections (i.p) of compound THPI-244 for 5 days.

Sequence of TrkA (Homo sapiens, UniProt P04629) (P04629 33-796, species assumed): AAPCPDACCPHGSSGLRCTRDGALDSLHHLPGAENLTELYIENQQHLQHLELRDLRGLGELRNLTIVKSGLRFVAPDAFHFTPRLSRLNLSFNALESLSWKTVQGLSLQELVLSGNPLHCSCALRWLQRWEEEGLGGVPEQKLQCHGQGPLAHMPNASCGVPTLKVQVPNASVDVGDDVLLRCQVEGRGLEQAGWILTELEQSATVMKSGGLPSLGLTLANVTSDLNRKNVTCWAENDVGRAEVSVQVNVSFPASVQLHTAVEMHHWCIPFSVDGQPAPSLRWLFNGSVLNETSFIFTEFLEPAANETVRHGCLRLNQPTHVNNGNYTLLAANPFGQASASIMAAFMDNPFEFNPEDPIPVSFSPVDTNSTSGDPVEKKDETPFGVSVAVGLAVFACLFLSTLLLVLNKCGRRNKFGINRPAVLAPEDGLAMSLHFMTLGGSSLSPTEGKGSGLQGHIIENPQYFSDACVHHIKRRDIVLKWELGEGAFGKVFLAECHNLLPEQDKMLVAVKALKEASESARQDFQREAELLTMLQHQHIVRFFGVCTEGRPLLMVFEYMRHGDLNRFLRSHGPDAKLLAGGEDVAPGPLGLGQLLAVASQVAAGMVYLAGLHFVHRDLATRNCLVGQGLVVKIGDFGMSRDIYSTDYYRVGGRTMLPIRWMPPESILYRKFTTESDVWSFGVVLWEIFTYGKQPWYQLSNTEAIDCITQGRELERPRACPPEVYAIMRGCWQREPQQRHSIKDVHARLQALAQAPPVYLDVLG
T1 sequence (Q3UFB7 34-799): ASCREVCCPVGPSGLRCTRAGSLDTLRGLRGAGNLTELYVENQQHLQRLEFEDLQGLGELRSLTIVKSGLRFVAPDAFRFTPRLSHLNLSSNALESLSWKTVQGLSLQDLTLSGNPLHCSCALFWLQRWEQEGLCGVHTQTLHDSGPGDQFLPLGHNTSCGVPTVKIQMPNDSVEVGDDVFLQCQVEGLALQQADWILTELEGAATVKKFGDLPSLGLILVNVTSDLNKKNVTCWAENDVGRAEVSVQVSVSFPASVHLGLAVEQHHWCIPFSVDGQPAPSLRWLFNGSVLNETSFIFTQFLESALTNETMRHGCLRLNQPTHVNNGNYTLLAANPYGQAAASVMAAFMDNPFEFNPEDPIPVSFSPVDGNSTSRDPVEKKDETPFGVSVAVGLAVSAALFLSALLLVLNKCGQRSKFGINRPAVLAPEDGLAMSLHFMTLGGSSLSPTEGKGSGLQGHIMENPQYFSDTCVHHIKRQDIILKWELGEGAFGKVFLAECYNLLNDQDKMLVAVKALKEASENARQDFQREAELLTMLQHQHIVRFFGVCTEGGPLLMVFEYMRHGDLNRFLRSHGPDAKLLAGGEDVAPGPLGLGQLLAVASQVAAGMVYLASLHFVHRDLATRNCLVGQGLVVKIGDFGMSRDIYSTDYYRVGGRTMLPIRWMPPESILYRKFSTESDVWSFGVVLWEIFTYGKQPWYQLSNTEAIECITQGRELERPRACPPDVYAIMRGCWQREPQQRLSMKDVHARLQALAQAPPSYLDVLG

O=C(Cc1ccccc1)N[C@H](CNc1nc(CN2CCN(C(=O)Cc3ccccc3)CC2)cs1)c1ccccc1 [THPI-244]
increase of TrkA in brain [1]: 78% | time to maximum level in brain ([2]; 0.2 mg/kg i.p., mouse): ≤ 5 min | amount remaining in brain ([2]; 240 min after 0.2 mg/kg i.p.): negligible amount | increase of sAPPα over untreated control cells (Western blot) [3]: 2 fold | lowest concentration with significant cytotoxicity [4]: 40 µM | lowest concentration with significant increase of sAPPα [5]: 50 nM | lowest concentration with significant cytotoxicity [6]: 50 µM | % TrkA ⬆ [7]: 99% | lowest concentration with significant decrease of Aβ42 [8]: 50 nM | lethality ([9]; 100 mg/kg i.p., 6 mice, monitored for 5 days): did not result in the death of any of the 6 mice | lethality ([9]; 200 mg/kg, single mouse): survived without visible ill effects | lethality ([9]; repeated i.p. injections for 5 days, 3 mice): None of the mice showed any lethal effect
